From ChEMBL document CHEMBL1157603, “Structural insights into the design of small molecule inhibitors that selectively antagonize Mcl-1” (J Med Chem, 2010)
pKd, pKi: −log10 of the molar value.

What was measured:
Bcl-2-like protein 1 [1] = molecular target: T1, Bcl-2-like protein 1 (Homo sapiens, UniProt Q07817); experiment: Displacement of fluorescein-labeled Bak-BH3 peptide from human Bcl-XL by fluorescence polarization assay
[2] = molecular target: T2, Induced myeloid leukemia cell differentiation protein Mcl-1 (Homo sapiens, UniProt Q07820); experiment: Displacement of fluorescein-labeled Bak-BH3 peptide from human Mcl1 by fluorescence polarization assay
T2 sequence (Q07820 whole entry): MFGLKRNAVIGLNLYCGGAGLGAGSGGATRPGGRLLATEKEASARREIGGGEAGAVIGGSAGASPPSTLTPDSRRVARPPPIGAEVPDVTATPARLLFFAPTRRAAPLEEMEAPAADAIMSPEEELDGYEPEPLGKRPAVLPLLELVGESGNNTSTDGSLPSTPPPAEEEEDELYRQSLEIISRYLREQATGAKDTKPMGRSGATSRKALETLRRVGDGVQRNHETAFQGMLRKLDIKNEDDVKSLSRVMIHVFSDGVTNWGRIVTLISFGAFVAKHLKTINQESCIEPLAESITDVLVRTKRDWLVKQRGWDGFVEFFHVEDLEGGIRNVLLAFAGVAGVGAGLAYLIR

Bcl-2-like protein 1 [3] = molecular target: T1, Bcl-2-like protein 1; experiment: Binding affinity to human Bcl-XL by isothermal titration calorimetry
[4] = molecular target: T2, Induced myeloid leukemia cell differentiation protein Mcl-1; experiment: Binding affinity to human Mcl1 by isothermal titration calorimetry

T1 sequence (Q07817 whole entry): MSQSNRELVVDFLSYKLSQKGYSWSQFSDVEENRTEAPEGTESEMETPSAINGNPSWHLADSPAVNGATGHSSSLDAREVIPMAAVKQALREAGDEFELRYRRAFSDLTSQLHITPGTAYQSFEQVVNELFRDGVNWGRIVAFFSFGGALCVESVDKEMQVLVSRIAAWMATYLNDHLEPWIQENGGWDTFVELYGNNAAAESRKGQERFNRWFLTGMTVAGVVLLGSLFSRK

| Structure (SMILES) | pKi (Bcl-2-like protein 1 [1]) | pKi [2] | pKd (Bcl-2-like protein 1 [3]) | pKd [4] |
| --- | --- | --- | --- | --- |
| COc1cccc(-c2ccc(/C=C3\SC(=S)N([C@@H](Cc4ccccc4)C(=O)O)C3=O)cn2)c1OC | 5.43 | 5.16 | 5.47 | 6.60 |
| COc1ccc(-c2ccc(/C=C3\SC(=S)N([C@@H](Cc4ccccc4)C(=O)O)C3=O)cn2)cc1OC | < 4.00 | 5.10 | < 3.12 | 5.00 |
| CC(C)C(C(=O)O)N1C(=O)/C(=C/c2ccc(Br)cc2)SC1=S (configuration not stated) | 5.00 | 4.36 | 5.06 | 4.08 |
